In paper PMC9739695, “Water-Soluble Salts Based on Benzofuroxan Derivatives—Synthesis and Biological Activity” (International Journal of Molecular Sciences, 2022):
Read-outs that look alike come from different tables or passages of the source.

Legend:
barley seeds = assay: Pre-sowing seed treatment, sowing qualities of barley seeds; type: in vivo; details: for germination energy / laboratory germination: control 95.2
Method: (§1) When evaluating the effectiveness of treatment of wheat, alfalfa, barley, rice, and sorghum seeds as fungicidal and bactericidal agents with preparation compounds at concentrations of 10, 20, and 40 mmol, their effect on the suppression of seed infection was evaluated.
(§2) […] The sowing qualities were evaluated (germination energy for 3–4 days, laboratory germination for 7–8 days) according to GOST 12038-84 [60]. Sowing qualities of seeds were determined in wet chambers. According to the sample, 50 seeds were taken in 4-fold repetition.

[1] = system: bacterial microflora on rice seeds; assay: Growth of bacterial microflora on treated rice seeds; type: cell-based
Method: (§3) During phytopathological analyses of agricultural crops, the species composition of fungal and bacterial microflora was established. Laboratory studies were carried out on two nutrient media potato-agar (ingredients: potatoes—200 g; agar-agar—20 g; distilled water—1000 mL.) and potato-dextrose agar (ingredients: potatoes—200 g;dextrose—20 g; agar-agar—20 g; distilled water—1000 mL), according to the guidelines.
as §1

[2] = system: bacterial microflora on barley seeds; assay: Growth of bacterial microflora on treated barley seeds; type: cell-based; details: all studied doses
Method: as §3, §1

SH-SY5Y (neuroblastoma) = assay: Cell viability, MTT test; type: cell-based, Human; details: for IC50: Homo sapiens, SH-SY5Y, read-out: IC50 (concentration causing 50% inhibition of cell population growth)
Method: (§4) In this work, the cytotoxic potential of the water-soluble salts based on benzofuroxan was determined by the effect of compounds on the survival of the cell tumor origin cultures (SH-SY5Y, Hep2, A549, HeLa) using the MTT test. To understand how the synthesized compounds can influence the healthy microenvironment in the body, the effect of substances on the viability of a normal Hek 293 cell culture was additionally evaluated.
(§5) Human cell cultures of tumor origin—SH-SY5Y (neuroblastoma), HeLa (cervical tumor), Hep-2 (larynx carcinoma), A549 (adenocarcinomic human alveolar basal epithelial cells)—and normal cell line Hek 293 (human embryonic kidneys), provided by the Laboratory of Tumor Cell Genetics of the Scientific Research Institute of Carcinogenesis, N.N. Blokhin National Medical Research Center of Oncology, as well as the Institute of Cytology of the Russian Academy of Sciences, were grown in a nutrient medium DMEM (PanEco, Moscow, Russia) and MEM (PanEco, Moscow, Russia), containing fetal bovine serum (10% by volume) (ThermoFisher Scientific, Paisley, UK), Glutamax (2 mM) (Gibco, Scotland, UK), and penicillin-streptomycin (1% by volume) (PanEco, Moscow, Russia). The cultivation was carried out at 37 °C in a humidified CO2 atmosphere (5%).
(§6) Cell viability was determined by MTT test. Cells were seeded in a 96-well plate in the amount of 1 × 10^4 cells/200µLof complete nutrient medium and cultured at 37 °C in CO2 (5%). After 24 h of incubation, various concentrations of test compounds in the range from 0.1 to 100 μM, were added to the cell cultures, and then the cells were cultured under the same conditions for 24 and 72 h. For each concentration, the experiment was carried out in triplicate.
(§7) All compounds were dissolved in DMSO, then diluted with the medium to the required concentration. […] The DMSO was also added to the control wells in a volume of 1%. After the incubation time, MTT (3-(4,5-dimethylthiazol-2-yl)-2,5-diphenyltetrazolium bromide, 5 mg/mL) was added to each well and plates were additionally incubated for 2 h (until the characteristic color appeared).
(§8) Using a plate analyzer (Cytation3, BioTech Instruments Inc., Winooski, VT, USA), the optical density was determined at 530 nm. The concentration value causing 50% inhibition of cell population growth (IC50) was determined from dose-dependent curves.

wheat seeds = assay: Pre-sowing seed treatment, sowing qualities of wheat seeds; type: in vivo; details: for germination energy: control 82; for laboratory germination: control 85.7
Method: as §1, §2

[3] = system: glycolysis in SH-SY5Y cells; assay: Glycolysis stress test (ECAR, Seahorse XF96e); type: cell-based, Human; details: 100 µM
Method: Using the cell metabolism analyzer Agilent Seahorse XF96e Analyzer (Seahorse Bioscience, North Billerica, MA, USA), the rate of extracellular acidification of the medium (ECAR) in cells of tumor origin SH-SY5Y was evaluated as a glycolysis measure.
The ability of compounds to suppress anaerobic glycolysis was studied using the Agilent Seahorse XF96e Analyzer (Seahorse Bioscience, North Billerica, MA, USA) by the level of hydrogen proton production in the studied samples on cell lines of neuroblastoma SH-SY5Y using a glycolysis stress test [62]. The rate of extracellular acidification of the medium was measured in real time, which made it possible to assess the intensity of glycolysis in cells by fixing the three main parameters of the glycolytic function: basal glycolysis, glycolytic capacity, and glycolytic reserve.
SH-SY5Y cells in the exponential growth phase were seeded in a 96-well Seahorse cell culture microplate. The planting density of the cell culture was 2 × 10^4/well. […]
The test compounds were added from port A at a concentration of 100 μM. To determine the effect of test compounds on basal glycolysis of neoplastic cells, 10 mM glucose was added from port B. The maximum glycolytic capacity was assessed by injecting oligomycin at a concentration of 1 μM from port C. […]

alfalfa seeds = assay: Pre-sowing seed treatment, sowing qualities of alfalfa seeds; type: in vivo; details: for germination energy / laboratory germination: control 76
Method: as §1, §2

[4] = system: Hek 293 (human embryonic kidneys); assay: Cell viability, MTT test, normal cell line; type: cell-based; details: read-out: IC50 (concentration causing 50% inhibition of cell population growth)
Method: as §4, §5, §6, §7, §8

sorghum seeds = assay: Pre-sowing seed treatment, sowing qualities of sorghum seeds; type: in vivo; details: for germination energy: control 52.3; for laboratory germination: control 57
Method: as §1, §2

[5] = system: fungal microflora (mushrooms) on alfalfa seeds; assay: Growth of fungal microflora on treated alfalfa seeds; type: cell-based; details: 10 mmol
Method: as §3
When evaluating the effectiveness of treatment of wheat, alfalfa, barley, rice, and sorghum seeds as […], their effect on the suppression of seed infection was evaluated.

Compound	germination energy (barley seeds; 10 mmol) [%]	laboratory germination (barley seeds; 10 mmol) [%]	sowing qualities of seeds compared with control (barley seeds; 20 mmol)	germination energy (barley seeds; 20 mmol) [%]	laboratory germination (barley seeds; 20 mmol) [%]	germination energy (barley seeds; 40 mmol) [%]	laboratory germination (barley seeds; 40 mmol) [%]	IC50 (SH-SY5Y (neuroblastoma); 24 h) [µM]	IC50 (SH-SY5Y (neuroblastoma); 72 h) [µM]	germination energy (wheat seeds; 10 mmol) [%]	laboratory germination (wheat seeds; 10 mmol) [%]	germination energy (wheat seeds; 20 mmol) [%]	laboratory germination (wheat seeds; 20 mmol) [%]	germination energy (wheat seeds; 40 mmol) [%]	laboratory germination (wheat seeds; 40 mmol) [%]	germination energy (alfalfa seeds; 10 mmol) [%]	laboratory germination (alfalfa seeds; 10 mmol) [%]	germination energy (alfalfa seeds; 20 mmol) [%]	laboratory germination (alfalfa seeds; 20 mmol) [%]	germination energy (alfalfa seeds; 40 mmol) [%]	other results
O=[N+]([O-])c1c(Cl)cc2c(no[n+]2[O-])c1NCCCN1CCOCC1 [4e, 6-chloro-4-(3-(morpholino-4-ium)propylamino)-5-nitrobenzo[c][1,2,5]oxadiazole 1-oxide chloride]	85.7	85.7	higher than control	96	98	94	99	24.1 ± 1.22	20.2 ± 0.72	33.3	42.8	97	97.5	98	99	46.6	46.6	78.5	79.5	73	effect on bacterial microflora ([1]; 10 mmol): positive effect on the suppression of bacterial microflora; effect on bacterial microflora ([1]; 20 mmol): positive effect on the suppression of bacterial microflora; effect on bacterial microflora [2]: slight suppression of the bacterial microflora; selectivity index (SH-SY5Y (neuroblastoma); IC50 on neuroblastoma SH-SY5Y with respect to Hek 293, 24 h): more than 4; sowing qualities of seeds compared with control (wheat seeds; 20 mmol): higher than in the case of controls; sowing qualities of seeds compared with control (wheat seeds; 40 mmol): higher than in the case of controls; suppression of glycolytic function parameters ([3]; compared with control samples): 60%; laboratory germination (alfalfa seeds; 40 mmol): 74%; IC50 ([4]; HEK293, 24 h): 99 ± 2.09 µM; IC50 ([4]; HEK293, 72 h): 86.5 ± 5.75 µM; germination energy (sorghum seeds; 10 mmol): 33.3%; laboratory germination (sorghum seeds; 10 mmol): 63.3%; germination energy (sorghum seeds; 20 mmol): 50.5%; laboratory germination (sorghum seeds; 20 mmol): 56%; germination energy (sorghum seeds; 40 mmol): 50.5%; laboratory germination (sorghum seeds; 40 mmol): 52.5%
CN(C)CCCNc1c([N+](=O)[O-])c(Cl)cc2c1no[n+]2[O-].Cl [4g, 6-chloro-4-(3-(dimethylammonio)propylamino)-5-nitrobenzo[c][1,2,5]oxadiazole 1-oxide chloride]	52.3	52.3	higher than control	100	100	100	100	20.9 ± 0.82	17.07 ± 0.03	42.8	47.6	80.9	90.4	80.9	80.9	56.6	60	43.3	63.3	80	sowing qualities of seeds compared with control (barley seeds; 40 mmol): higher than control; effect on fungal microflora [5]: positive effect on the suppression of fungal microflora; glycolytic parameters (basal glycolysis, glycolytic capacity, glycolytic reserve) ([3]; ECAR): reaching a minimum; sowing qualities of seeds compared with control (alfalfa seeds; 40 mmol): higher than controls; laboratory germination (alfalfa seeds; 40 mmol): 80%; IC50 ([4]; HEK293, 24 h): 21.9 ± 0.39 µM; IC50 ([4]; HEK293, 72 h): 12 ± 1.12 µM; germination energy (sorghum seeds; 10 mmol): 36.6%; laboratory germination (sorghum seeds; 10 mmol): 50%; sowing qualities of seeds compared with control (sorghum seeds; 20 mmol): higher than in the control; germination energy (sorghum seeds; 20 mmol): 61.9%; laboratory germination (sorghum seeds; 20 mmol): 71.4%; sowing qualities of seeds compared with control (sorghum seeds; 40 mmol): higher than in the control; germination energy (sorghum seeds; 40 mmol): 57.2%; laboratory germination (sorghum seeds; 40 mmol): 80.9%
